Ki data for two compounds are collected here from BindingDB's records for doi:10.7270/Q22R3Q30 (Nmmlsc, 2009).

This assay concerns the target Cell division control protein 42 homolog (Homo sapiens, UniProt P60953). In words: Cdc42 activated mutant GTP-binding inhibitors, SAR follow-up, biochemical, bead-based multiplex flow cytometry, additional SAR set (AID 2021). On the technique in general: A flow cytometer gives signals particle by particle.

pKi: −log10 of the molar value.

Cell division control protein 42 homolog, sequence (P60953 whole entry): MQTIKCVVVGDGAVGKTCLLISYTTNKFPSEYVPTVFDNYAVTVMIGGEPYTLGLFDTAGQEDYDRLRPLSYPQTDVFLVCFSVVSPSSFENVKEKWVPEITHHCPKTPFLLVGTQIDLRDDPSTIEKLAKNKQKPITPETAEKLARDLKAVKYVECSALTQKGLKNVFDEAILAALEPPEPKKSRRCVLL

Broadly, the pKi is −log10 of the Ki, conventionally taken in molar units. A high value points to a low Ki. For `O=C1NC(=O)/C(=C2/C(=O)Nc3ccccc32)N1`, the pKi is 6.09.
For `O=C1N=c2c(Br)cccc2=C1c1[nH]c2ccccc2c1NO` [7-bromanyl-3-[3-(oxidanylamino)-1H-indol-2-yl]indol-2-one] the value was 5.07.
